# In patent US8513232B2, “Substituted spirocyclic piperidine derivatives as histamine-3 (H3) receptor ligands” (Cephalon, Inc., priority 2008, dated 2013):
# Like-named read-outs stand apart in the source and are kept apart here.
# Assays:
# [1] = target: T1, rat histamine H3 receptor (Rattus norvegicus, UniProt Q9QYN8); assay: Rat H3 radioligand binding ([3H]-N-alpha-methylhistamine, SPA)
# T1 construct: encoding the entire 445-amino-acid rat histamine H3 receptor; expressed in transfected cells; membrane preparation
# Method in brief: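 SPA-bead binding assay using [3H]-N-alpha-methylhistamine (approximately 1 nM final) with test compounds from 0.01 nM to 30 μM. Rat H3 receptor membranes came from stably transfected CHO-A3 cells; incubation ran 4 h at room temperature, in the dark, in Tris pH 7.4 buffer with MgCl2 and BSA. Clobenpropit (10 μM) gave non-specific binding.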
# human H3 receptor = target: T2, human H3 receptor (Homo sapiens, UniProt Q9Y5N1); assay: Human H3 radioligand binding ([3H]-N-alpha-methylhistamine, SPA)
# T2 construct: expressed in transfected cells
# Method in brief: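 Compounds (0.01 nM-30 μM) competed with approximately 1 nM [3H]-N-alpha-methylhistamine for human H3 receptor in membranes of stably transfected CHO cells, 10 μg protein per well, in Tris-HCl pH 7.4/MgCl2/BSA buffer for 4 h at room temperature. Bound radioligand measured by scintillation proximity; 10 μM clobenpropit gave non-specific binding.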
# [2] = Table C, rat H3 binding, read-out: Rat H3 Ki
# [3] = Table C, human H3 binding, read-out: Human H3 Ki
# [4] = rat H3 binding, Table D, read-out: Rat H3 Ki
# [5] = human H3 binding, Table D, read-out: Human H3 Ki
# [6] = Rat H3 binding, Table B, Examples 136-362, read-out: rat H3 binding Ki
# [7] = Human H3 binding, Table B, Examples 136-362, read-out: hum H3 binding Ki
# [8] = Table A, rat H3 binding, read-out: Rat Ki
# [9] = Table A, human H3 binding, read-out: Human Ki
# T2 sequence (Q9Y5N1 whole entry): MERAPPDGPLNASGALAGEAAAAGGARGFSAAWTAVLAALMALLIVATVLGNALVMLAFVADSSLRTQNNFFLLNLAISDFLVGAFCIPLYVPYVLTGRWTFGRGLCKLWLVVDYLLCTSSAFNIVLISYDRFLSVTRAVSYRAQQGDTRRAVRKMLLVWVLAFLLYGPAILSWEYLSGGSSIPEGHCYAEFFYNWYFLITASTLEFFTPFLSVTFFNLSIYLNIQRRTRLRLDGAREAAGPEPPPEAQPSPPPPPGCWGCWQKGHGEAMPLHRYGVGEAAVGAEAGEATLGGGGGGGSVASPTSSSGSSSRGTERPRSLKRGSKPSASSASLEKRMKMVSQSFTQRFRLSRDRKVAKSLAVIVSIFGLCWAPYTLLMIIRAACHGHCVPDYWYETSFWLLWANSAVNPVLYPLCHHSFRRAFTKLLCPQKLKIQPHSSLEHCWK
# T1 sequence (Q9QYN8 whole entry): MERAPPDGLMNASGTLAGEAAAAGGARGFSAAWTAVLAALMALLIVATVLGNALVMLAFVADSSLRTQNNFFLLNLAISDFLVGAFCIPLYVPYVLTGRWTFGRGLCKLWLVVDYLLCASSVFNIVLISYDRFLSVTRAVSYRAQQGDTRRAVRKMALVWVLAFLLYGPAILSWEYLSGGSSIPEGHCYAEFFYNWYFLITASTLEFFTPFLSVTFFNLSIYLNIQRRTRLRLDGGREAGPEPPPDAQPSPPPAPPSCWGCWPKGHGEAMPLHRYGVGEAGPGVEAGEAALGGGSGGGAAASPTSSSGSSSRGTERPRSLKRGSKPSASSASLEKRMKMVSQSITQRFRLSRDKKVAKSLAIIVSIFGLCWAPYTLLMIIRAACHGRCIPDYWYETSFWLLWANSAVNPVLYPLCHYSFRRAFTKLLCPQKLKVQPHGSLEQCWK
Compound,melting point [°C],"Ki [1, 4] [nM]",Ki (human H3 receptor; [5]) [nM],"Ki [1, 6] [nM]",Ki (human H3 receptor; [7]) [nM],also measured
O=S(=O)(C1CC1)N1CCC(Oc2ccc3c(c2)CCC2(CCN(C4CCC4)CC2)O3)CC1 [Example 437],233 to 235,–,–,–,–,"Ki [1, 2]: < 200 nM; Ki (human H3 receptor; [3]): < 200 nM"
CNC(=O)c1ccc(-c2ccc3c(c2)COC2(CCN(C4CCC4)CC2)O3)cc1OC [Example 633],175 to 177,< 200,< 200,–,–,–
CCOC(=O)c1ccc(NC(=O)Nc2ccc3c(c2)COC2(CCN(C4CCC4)CC2)O3)cc1 [Example 208],188 to 189,–,–,200 to 1000,< 200,–
COc1cc(C(N)=O)ccc1-c1ccc2c(c1)COC1(CCN(C3CCC3)CC1)O2 [Example 712],122 to 124,< 200,< 200,–,–,–
c1cncc(CNc2ccc3c(c2)COC2(CCN(C4CCC4)CC2)O3)c1 [Example 321],117 to 118,–,–,< 200,< 200,–
Cc1noc(CCc2ccc3c(c2)COC2(CCN(C4CCC4)CC2)O3)n1 [Example 676],74 to 76,< 200,< 200,–,–,–
CCn1cc(-c2ccc3c(c2)COC2(CCN(C4CCC4)CC2)O3)ccc1=O [Example 778],156 to 158,< 200,< 200,–,–,–
O=S1(=O)CCC(c2ccc3c(c2)COC2(CCN(C4CCC4)CC2)O3)C1 (stereo not drawn) [Example 491],151 to 152,–,–,–,–,Ki ([1]; read-out: Rat H3 kI): < 200 nM; Ki (human H3 receptor; read-out: Human H3 Ki): < 200 nM
O=C(N1CCOCC1)N1CCN(c2ccc3c(c2)COC2(CCN(C4CCC4)CC2)O3)CC1 [Example 310],174 to 176,–,–,< 200,< 200,–
c1cn2cc(-c3ccc4c(c3)COC3(CCN(C5CCC5)CC3)O4)ccc2n1 [Example 19],64.5 to 66,–,–,–,–,"Ki [1, 8]: < 200 nM; Ki (human H3 receptor; [9]): < 200 nM"
Cc1ccc(-c2ccc3c(c2)COC2(CCN(C4CCC4)CC2)O3)cn1 [Example 31],137 to 139,–,–,–,–,"Ki [1, 8]: < 200 nM; Ki (human H3 receptor; [9]): < 200 nM"
O=C(Nc1ccc2c(c1)CCC1(CCN(C3CCC3)CC1)O2)c1cc(-c2ccccc2)ncn1 [Example 249],153 to 155,–,–,< 200,< 200,–
Cc1ccccc1-c1ccc2c(c1)COC1(CCN(C3CCC3)CC1)O2 [Example 138],241 to 243,–,–,< 200,< 200,–
Cn1cc(-c2ccc3c(c2)COC2(CCN(C4CCC4)CC2)O3)ccc1=O [Example 659],170 to 173,< 200,< 200,–,–,–
Cc1ncccc1-c1ccc2c(c1)COC1(CCN(C3CCC3)CC1)O2 [Example 744],197 to 199,< 200,< 200,–,–,–
c1ccn2ncc(-c3ccc4c(c3)COC3(CCN(C5CCC5)CC3)O4)c2c1 [Example 757],158 to 160,< 200,< 200,–,–,–
O=C(c1ccc(-c2ccc3c(c2)COC2(CCN(C4CCC4)CC2)O3)cc1)N1CC[C@H](F)C1 [Example 68],184 to 186,–,–,–,–,"Ki [1, 8]: < 200 nM; Ki (human H3 receptor; [9]): < 200 nM"
O=C(Nc1ccc2c(c1)COC1(CCN(C3CCC3)CC1)O2)c1ccc2nccn2c1 [Example 345],254 to 255,–,–,< 200,< 200,–
COCCn1cc(-c2ccc3c(c2)COC2(CCN(C4CCC4)CC2)O3)ccc1=O [Example 708],141 to 142,< 200,< 200,–,–,–
c1ccc(COc2cc(-c3ccc4c(c3)COC3(CCN(C5CCC5)CC3)O4)ccn2)cc1 [Example 548],120 to 125,–,–,–,–,Ki ([1]; read-out: Rat H3 kI): < 200 nM; Ki (human H3 receptor; read-out: Human H3 Ki): < 200 nM
COc1nc(C)ccc1-c1ccc2c(c1)COC1(CCN(C3CCC3)CC1)O2 [Example 746],61 to 63,< 200,< 200,–,–,–

Compound,melting point [°C],"Ki [1, 4] [nM]",Ki (human H3 receptor; [5]) [nM],"Ki [1, 6] [nM]",Ki (human H3 receptor; [7]) [nM],also measured
COc1cc(-c2ccc3c(c2)COC2(CCN(C4CCC4)CC2)O3)ccc1C(N)=O [Example 742],212 to 214,< 200,< 200,–,–,–
O=C(NCCO)c1ccc(-c2ccc3c(c2)CCC2(CCN(C4CCC4)CC2)O3)cc1 [Example 140],145 to 147,–,–,< 200,< 200,–
CC(C)(C)N1CCC2(CC1)OCc1cc(-c3ccc(=O)[nH]c3)ccc1O2 [Example 733],241 to 243,< 200,< 200,–,–,–
COC(=O)c1ccc(N2CCN(c3ccc4c(c3)CCC3(CCN(C5CCC5)CC3)O4)CC2)nc1 [Example 385],202 to 203,–,–,–,–,"Ki [1, 2]: < 200 nM; Ki (human H3 receptor; [3]): < 200 nM"
CNC(=O)c1ccc(-c2ccc3c(c2)COC2(CCN(C4CCC4)CC2)O3)c(C)c1 [Example 681],210 to 211,< 200,< 200,–,–,–
COCc1cc(-c2ccc3c(c2)COC2(CCN(C4CCC4)CC2)O3)cnc1OC [Example 804],257,< 200,< 200,–,–,–
COc1ncc(-c2ccc3c(c2)COC2(CCN(C4CCC4)CC2)O3)cc1F [Example 714],175 to 177,< 200,< 200,–,–,–
O=C(Nc1ccc(F)cc1)Nc1ccc2c(c1)COC1(CCN(C3CCC3)CC1)O2 [Example 248],237 to 238,–,–,< 200,< 200,–
Cn1cc2c(n1)CCC(c1ccc3c(c1)COC1(CCN(C4CCC4)CC1)O3)=C2 [Example 459],149 to 150,–,–,–,–,Ki ([1]; read-out: Rat H3 kI): < 200 nM; Ki (human H3 receptor; read-out: Human H3 Ki): < 200 nM
O=C(Nc1nccs1)c1ccc(-c2ccc3c(c2)COC2(CCN(C4CCC4)CC2)O3)cc1 [Example 43],242 to 243,–,–,–,–,"Ki [1, 8]: < 200 nM; Ki (human H3 receptor; [9]): < 200 nM"
Cc1cn(-c2ccc3c(c2)COC2(CCN(C4CCC4)CC2)O3)cc1CO [Example 87],133 to 135,–,–,–,–,"Ki [1, 8]: < 200 nM; Ki (human H3 receptor; [9]): < 200 nM"
CNC(=O)c1cc(COc2ccc3c(c2)CCC2(CCN(C4CCC4)CC2)O3)ccn1 [Example 292],141 to 143,–,–,< 200,< 200,–
O=C(c1ccc(-c2ccc3c(c2)COC2(CCN(C4CCC4)CC2)O3)cc1F)N1CCOCC1 [Example 642],161 to 162,< 200,< 200,–,–,–
Cc1[nH]c(=O)ccc1-c1ccc2c(c1)COC1(CCN(C3CCC3)CC1)O2 [Example 736],191 to 193,< 200,< 200,–,–,–
OC1CC2(CCN(C3CCC3)CC2)Oc2ccc(OCc3ccccc3)cc21 (stereo not drawn) [Example 190],69 to 71,–,–,200 to 1000,< 200,–
Clc1ccc(Nc2ccc3c(c2)COC2(CCN(C4CCC4)CC2)O3)cc1 [Example 259],234 to 235,–,–,< 200,< 200,–
COCCN(C)C(=O)c1c(F)cc(-c2ccc3c(c2)COC2(CCN(C4CCC4)CC2)O3)cc1F [Example 359],78 to 80,–,–,< 200,< 200,–
O=C(Nc1ccc2c(c1)COC1(CCN(C3CCC3)CC1)O2)c1cc[nH]c(=O)c1 [Example 278],260 to 262,–,–,< 200,< 200,–
c1cc2c(cc1N1CCC(N3CCOCC3)CC1)COC1(CCN(C3CCC3)CC1)O2 [Example 298],142.4 to 144.3,–,–,< 200,< 200,–
CNC(=O)c1ccc(-c2ccc3c(c2)CCC2(CCN(C4CCC4)CC2)O3)nc1 [Example 595],192 to 194,< 200,< 200,–,–,–
